The subject of data set [1] is mouse jejunal apical-in enteroids. On the set-up: method as in PMID 38086658. Conditions: jejunum, cutoff 25%; cited from earlier work.
Data set [2] concerns human ileal apical-in enteroids. As to the kind of experiment: Cell viability by WST-1 assay in apical-in enteroids. The format is cell-based. Conditions: 4 h. Here is the method:
Cytotoxicity and effects on cell viability after exposure to glab, licoA, and glycy in apical-out and apical-in enteroids (6.25–500 μg mL^–1) and proliferating Caco-2 cells (3.13–100 μg mL^–1) were determined by LDH leakage (Section 2.6.1) and WST-1 assays (Section 2.6.2), respectively. For this, stock solutions of 50 mg mL^–1 of glab, licoA, and glycy in DMSO were used. […] An overview of the experimental conditions for the exposure experiments with glab, licoA, and glycy is shown in Table S2 (Supporting Information). […] After 3 days in ODM, the effects on cytotoxicity and cell viability of glab, licoA, and glycy in apical-out and apical-in enteroids (passages between 3 and 17) were assessed after 4 and 24 h of incubation. […]
Effects on cell viability after stimulation by glab, licoA, and glycy were assessed by measuring cleavage of the tetrazolium salt WST-1 to formazan catalyzed by cellular mitochondrial dehydrogenases and analyzed using a WST-1 cell viability kit (PromoKine, Heidelberg, Germany), according to the manufacturer’s instructions. Cell viability was expressed as the percentage of the control cells (enteroids or Caco-2 cells grown in a medium) and was calculated with eq 2. […]
For apical-in enteroids, the cleavage of WST-1 to formazan was assessed in the MG. […]
On the technique in general: Tetrazolium assays rely on reduction of a dye to a coloured formazan, in cell work by metabolically active cells.

For data set [3] the test system is unchanged. Nature of the data set: Cytotoxicity by LDH leakage assay in apical-in enteroids. In kind it is cell-based. The note with it: 4 h, cutoff 25% vs negative control. The protocol:
(§1) Cytotoxicity and effects on cell viability after exposure to glab, licoA, and glycy in apical-out and apical-in enteroids (6.25–500 μg mL^–1) and proliferating Caco-2 cells (3.13–100 μg mL^–1) were determined by LDH leakage (Section 2.6.1) and WST-1 assays (Section 2.6.2), respectively. For this, stock solutions of 50 mg mL^–1 of glab, licoA, and glycy in DMSO were used. […] An overview of the experimental conditions for the exposure experiments with glab, licoA, and glycy is shown in Table S2 (Supporting Information). In brief, apical-out and apical-in enteroids were grown for 7–10 days in OGM (∼200 enteroids per dome), after which the medium was changed to ODM (supplemented with 5 μM DAPT) to initiate enteroid differentiation. To generate apical-out enteroids, MG was removed from apical-in enteroids in OGM at day 7–10, as described in Section 2.3, and suspended in supplemented ODM. After 3 days in ODM, the effects on cytotoxicity and cell viability of glab, licoA, and glycy in apical-out and apical-in enteroids (passages between 3 and 17) were assessed after 4 and 24 h of incubation. For apical-out enteroids in a suspension, enteroids were pelleted by centrifugation (2 min, 200g, RT), after which the ODM was removed and 500 μL of the experimental agent was added. […] Caco-2 cells were grown for 48 h after seeding before experiments (passages 14–19) with proliferating cells and for 21 days after seeding (passages 14–33) with differentiated cells.[17] The medium (DMEM supplemented with FCS) was changed every 2 days. For exposure experiments, Caco-2 cells were incubated with glab, licoA, and glycy in DMEM without FCS, as FCS serves as an exogenous source of LDH.[22]
Cytotoxic effects of glab, licoA, and glycy were assessed by measuring leakage of intracellular lactate dehydrogenase (LDH) in the supernatant and analyzed using an LDH cytotoxicity detection kit (Roche Applied Science, Almere, The Netherlands), according to the manufacturer’s instructions. The LDH activity in the supernatant was expressed as the percentage of the maximum releasable LDH in enteroids or Caco-2 cells (enteroids or Caco-2 cells treated with 1% (v/v) Triton X-100) and calculated with eq 1. [drawing 1] 1 in which exp. value is the UV absorbance at 492 nm (Tecan Spark or Tecan Infinite 200 Pro, Tecan Group Ltd., Zürich, Switzerland), background control is the medium with corresponding concentration of glab, licoA, or glycy, and high control is the maximum releasable LDH in enteroids or Caco-2 cells. For enteroids, each well was used as its own positive control by taking the total releasable LDH of each well after incubation.

In data set [4] the test system is mouse jejunal apical-out enteroids. On the set-up: method as in PMID 38086658. The note with it: jejunum, cutoff 25%; cited from earlier work.
Data set [5] has the same test system. On the set-up: method as in PMID 38086658. The note with it: jejunum, cutoff 25%; cited from earlier work. The source holds these as a separate data set.
The test system of data set [6] is human ileal apical-out enteroids. Nature of the data set: Cell viability by WST-1 assay in apical-out enteroids. In kind it is cell-based. Conditions: 4 h exposure, range 6.25 up to 500 μg mL^–1. Here is the method: as §1
Effects on cell viability after stimulation by glab, licoA, and glycy were assessed by measuring cleavage of the tetrazolium salt WST-1 to formazan catalyzed by cellular mitochondrial dehydrogenases and analyzed using a WST-1 cell viability kit (PromoKine, Heidelberg, Germany), according to the manufacturer’s instructions. Cell viability was expressed as the percentage of the control cells (enteroids or Caco-2 cells grown in a medium) and was calculated with eq 2. [drawing 2] 2 in which exp. value is the UV absorbance at 450 nm (Tecan Spark or Tecan Infinite 200 Pro) and low control is the spontaneous cleavage of WST-1 to formazan by mitochondrial dehydrogenases in untreated enteroids or Caco-2 cells.

SMILES strings stand for the structures.

On to `CC1(C)C=Cc2c(ccc3c2OC[C@@H](c2ccc(O)cc2O)C3)O1` [glabridin], for which the figures for the highest noncytotoxic concentration in data set [1] and in data set [4] were 75 μg mL^–1 and 250 μg mL^–1, respectively. Besides, the “highest nonreducing viability concentration (WST-1)” value in data set [2] is on record as 100 μg mL^–1. In addition, the “highest nontoxic concentration (LDH)” value is listed as 100 μg mL^–1 in data set [3] (listed as Glabridin) and “around 300 μM” in data set [3] (listed as glab). For the same compound, in data set [5], the “highest nonreducing viability concentration” value is on record as 50 μg mL^–1.
Consider `COc1c(CC=C(C)C)c(O)cc2oc(=O)c(-c3ccc(O)cc3O)cc12` [glycycoumarin], for which the “highest nontoxic concentration (LDH)” value in data set [3] was “around 300 μM”.
As to `C=CC(C)(C)c1cc(/C=C/C(=O)c2ccc(O)cc2)c(OC)cc1O` [licochalcone A], the “highest nontoxic concentration (LDH)” value in data set [3] is given as “around 300 μM”. In data set [6], the “cell viability (WST-1), slight decrease, not statistically significant” value is “approximately 80%”.

Values taken from publication PMC11421016, “Biotransformation and Epithelial Toxicity of Prenylated Phenolics from Licorice Roots (Glycyrrhiza spp.) in 3D Apical-Out Mucus-Producing Human Enteroids” (Journal of Agricultural and Food Chemistry, 2024).
